Measurements: patent US6166209A, “Piperidine derivatives” (Hoffmann-La Roche Inc., priority 1997, dated 2000)
Where a name gives a salt, the structure may show the parent alone.

What was measured:
[1] = biological target: T1, OFQ receptor (rat, LC132) (Rattus norvegicus, UniProt P35370); assay: OFQ-R binding assay: [3H]-OFQ competition on membranes of 293s-OFQ-R cells; settings: Ki from IC50 by Cheng and Prusoff, at least 6 concentrations in triplicate, determined twice, read-out: OFQ pKi (converted)
T1 construct: expressed in transfected cells; host or cells: HEK-293 cells adapted to suspension growth (293s), vector pCEP4; total membrane fraction of 293s-OFQ-R cells
T1 sequence (P35370 whole entry): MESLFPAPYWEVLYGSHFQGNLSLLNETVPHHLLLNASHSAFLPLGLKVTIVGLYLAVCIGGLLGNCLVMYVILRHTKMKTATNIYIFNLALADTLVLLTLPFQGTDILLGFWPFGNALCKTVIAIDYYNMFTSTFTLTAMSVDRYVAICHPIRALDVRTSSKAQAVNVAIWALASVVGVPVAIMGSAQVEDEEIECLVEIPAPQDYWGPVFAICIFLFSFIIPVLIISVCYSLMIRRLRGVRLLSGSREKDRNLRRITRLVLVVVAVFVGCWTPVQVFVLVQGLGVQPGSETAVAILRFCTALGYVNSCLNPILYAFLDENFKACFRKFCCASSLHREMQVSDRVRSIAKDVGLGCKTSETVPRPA
Procedure: Methods of OFQ-R Binding Assay
HEK-293 cells adapted to suspension growth (293s) were cultured in HL medium plus 2% FBS. The cells were transfected with the rat OFQ receptor cDNA (LC132), FEBS Lett. 347, 284-288, 1994, cloned in the expression vector pCEP4 (Invitrogen, San Diego, Calif., USA) using lipofectin (Life Technologies, Bethesda, Md., USA). Transfected cells were selected in the presence of hygromycin (1000 U/ml) (Calbiochem, San Diego, Calif., USA). A pool of resistant cells was tested for OFQ-R expression by binding of [^3 H]-OFQ (Amersham PLC, Buckinghamshire, England). These cells (293s-OFQ-R) were expanded for large scale culture and membrane preparation.
293s-OFQ-R cells were harvested by centrifugation, washed 3 times with phosphate buffered saline (PBS) before resuspension in buffer A (50 mM Tris-HCl, pH 7.8, 5 mM MgCl2, 1 mM EGTA) and disruption with a tissue homogenizer (30 seconds, setting 4, Pt 20, Kinematica, Kriens-Lucern, Switzerland). A total membrane fraction was obtained by centrifugation at 49,000×g at 4° C. This procedure was repeated twice and the pellet was resuspended in buffer A. Aliquots were stored at -70° C. and protein concentrations were determined using the BCA™ Protein Assay Reagent (Pierce, Rockford, Ill.) following the manufacturer's recommendations.
[^3 H]-OFQ competition studies were carried out with 77 μg membrane protein in a final assay volume of 0.5 ml buffer A plus 0.1% BSA and 0.01% bacitracin (Boehringer-Mannheim, Mannheim, Germany) for one hour at room temperature. 50 nM unlabeled OFQ was used to define the non-specific binding. […] The retained radioactivity was counted on a Packard Top-Count microplate scintillation counter after addition of 40 μl of Microscint 40 (Canberra Packard). The effects of compounds were determined using at least 6 concentrations in triplicate, and determined twice. IC50 values were determined by curve fitting and these calues were converted to Ki values by the method of Cheng and Prusoff, Biochem. Pharmacol., 22, 3099, 1973.

[2] = tested on: adenylate cyclase in CHO(LC 132^+) cells; settings: CHO(LC 132+) cells in culture; cited from earlier work
mice [3] = settings: intra-cerebroventricular; cited from earlier work
OFQ-R = settings: both in vitro and in vivo; cited from earlier work
mice [4] = settings: intra-cerebroventricular; cited from earlier work; remark: listed apart in the source

Molecule	Ki [1] [µM]	inhibition of adenylate cyclase [2]	hyperalgesia (mice [3])	agonistic activity at the OFQ-R (OFQ-R)	locomotive activity (mice [4])
O=C1OC2(CCN(CCNC3c4ccccc4CCc4ccccc43)CC2)c2ccccc21 [A/1, 1'-[2-(10,11-Dihydro-5H-dibenzo[a,d]cyclohepten-5-ylamino)-ethyl]-spiro[isobenzofuran-1,4'-piperidin]-3-one methansulfonate (1:2)]	0.0501	–	–	–	–
F-G-G-F-T-G-A-R-K-S-A-R-K-L-A-N-Q (FGGFTGARKSARKLANQ) [OFQ, seventeen amino-acid-long peptide isolated from rat brain, natural ligand for a G-protein coupled receptor (OFQ-R)]	–	inhibits adenylate cyclase	induces hyperalgesia	exhibits agonistic activity	slows down locomotive activity
c1ccc(C(OCCN2CCC3(CC2)OCc2ccccc23)c2ccccc2)cc1 [Example C, 1'-(2Benzhydryloxy-ethyl)-3H-spiro[isobenzofuran-1,4'-piperidine]hydrochloride (1:1)]	0.0126	–	–	–	–
c1ccc2c(c1)CCCCC2NCCN1CCC2(CC1)OCc1ccccc12 (stereo not shown) [B/5, [2-(3H-Spiro[isobenzofuran-1,4'-piperidin]-1'yl)-ethyl]-(5,6,7,8-tetrahydro-4H-benzocyclohepten-4-yl)-amine hydrochloride (1:2)]	0.1	–	–	–	–
